Patent publication US12441980B2, “Methods for overcoming glutamine deprivation during mammalian cell culture” (priority 2014, dated 2025)

What was measured:
[1] = system: anti alpha-synuclein CHO cells; test: Transition of anti alpha-synuclein CHO cells from glutamine-containing to glutamine-free media: growth rate and viability
Procedure: Anti alpha-synuclein cells were transferred from glutamine-containing media to glutamine-free media using a 1:5 split ratio on Day 0. Cells were cultured at 36° C., 5% CO2 in 500 mL shake flasks and passaged every 4 days using glutamine-free media+10 mg/L insulin (first bar in FIG. 7A, diamond in FIG. 7B), glutamine-free media+10 mg/L insulin, 100 μM hypoxanthine, 16 μM thymidine (second bar in FIG. 7A, square in FIG. 7B), glutamine-free media+10 mg/L insulin, 500 μM adenosine (third bar in FIG. 7A, triangle in FIG. 7B), or glutamine-free media+10 mg/L insulin, 100 μM adenosine (fourth bar in FIG. 7A, circle in FIG. 7B), using a 1:5 split ratio.
Offline analysis: Samples were taken on most days and analyzed with a variety of equipment. Cell density and viability were measured using the standard technique of trypan blue exclusion using a Cedex (Roche Innovatis AG, Germany). Cell viability and growth rate of the various cultures were measured during the culture time course at specific days post-inoculation.
Anti alpha-synuclein CHO cells were transferred from glutamine-containing media to glutamine-free media using a 1:5 split ratio on Day 0.

[2] = system: mammalian cells expressing an immunoadhesin (DG44); test: Transition of immunoadhesin-expressing cells from glutamine-containing to glutamine-free media: cell viability and growth rate (trypan blue exclusion, Cedex); format: cell-based; conditions: 2.5 μM corticosteroid in glutamine-free media; FIG. 3
Source text: Cell culture methods: Cells were thawed and maintained as in a previous report (Kshirsagar, et al. 2012 Biotechnol Bioeng, Huang, et al. Biotechnology Progress 26(5):1400-1410 (2010)). Basal medium for thaw and passing was the same as in previous reports (Kshirsagar/Huang).

Structure (SMILES) | toxicity (concentration-dependent response) ([1]; 500 μM supplementation compared to 100 μM supplementation) | viability during transition to glutamine-free media ([1]; HT 100 μM/16 μM, adenosine 500 μM or 100 μM, FIG. 7B) | transitional growth rate ([1]; transition to glutamine-free media, 1:5 split ratio, HT 100 μM/16 μM, adenosine 100 or 500 μM, FIG. 7A) | viability drop vs control condition [2] | viability recovery period [2]
Nc1ncnc2c1ncn2[C@@H]1O[C@H](CO)[C@@H](O)[C@H]1O [adenosine] | slightly toxic | maintains | boosted the transitional growth rate |  | 
C[C@]12CCC(=O)C=C1CC[C@@H]1[C@@H]2[C@@H](O)C[C@@]2(C)[C@H]1CC[C@]2(O)C(=O)CO [hydrocortisone] |  |  |  | prevented the sharp viability drop | shortened the viability recovery period
C[C@]12C=CC(=O)C=C1CC[C@@H]1[C@@H]2[C@@H](O)C[C@@]2(C)[C@H]1CC[C@]2(O)C(=O)CO [prednisolone] |  |  |  | prevented the sharp viability drop | shortened the viability recovery period
